# Patent publication US20240207198A1, “ELECTROSPUN STRUCTURES HAVING A PHARMACEUTICAL AND METHODS OF MAKING AND USING THE SAME” (NFS IP Holdings, LLC, priority 2020, published 2024)
# Structures can show the parent of a compound that is named as a salt.
# Key:
# [1] = Oral vs. sublingual delivery of cannabidiol in a porcine model (plasma concentration by HPLC); format: in vivo, Yorkshire pigs; conditions: sublingual electrospun polyethylene oxide fiber scaffold ("strip") vs oral "gummy"; 10 mg cannabidiol each; representative pig 7-18; blood 3-120 min; FIG. 3
# Method: Four healthy Yorkshire pigs were selected to receive both oral and sublingual administrations of cannabidiol (i.e., each animal received both an oral administration and a sublingual administration separated by 48 hours). For the sublingual administration, a scaffold comprising fibers as described herein was used for each animal. Specifically, the fibers were electrospun using a polymer solution comprising cannabidiol and 13 wt % 100,000 molecular weight polyethylene oxide dissolved in dichloromethane. The cannabidiol was dispersed within the resulting electrospun polyethylene oxide fibers, as described herein. The resulting electrospun polyethylene oxide fibers comprised 40 wt % cannabidiol (relative to the polyethylene oxide mass) and 50 wt % confectionary sugar (i.e., for every 10 mg of polyethylene oxide, 4 mg of cannabidiol and 5 mg of confectionary sugar were added).
# (§1) The scaffold was placed under the tongue of each animal and allowed to dissolve in place. A catheter was placed in the animal's vein and used to withdraw blood at baseline and at 3, 9, 15, 30, 45, 60, and 120 minutes post-administration. […]
# Each blood sample was analyzed using high-performance liquid chromatography (HPLC) to determine the plasma concentration of cannabidiol in ng/mL. […]
# [2] = Oral vs. sublingual delivery of sildenafil citrate in a porcine model (plasma concentration by HPLC); format: in vivo, Yorkshire pigs; conditions: sublingual electrospun polyethylene oxide fiber scaffold ("strip") vs oral "pill", 25 mg sildenafil citrate each, representative pig 4-17, FIG. 4
# Method: Four healthy Yorkshire pigs were selected to receive both oral and sublingual administrations of sildenafil citrate (i.e., each animal received both an oral administration and a sublingual administration separated by 48 hours). For the sublingual administration, a scaffold comprising fibers as described herein was used for each animal. Specifically, the fibers comprised were electrospun using a polymer solution comprising sildenafil citrate and 13 wt % 100,000 molecular weight polyethylene oxide dissolved in dichloromethane. The sildenafil citrate was dispersed within the resulting electrospun polyethylene oxide fibers, as described herein. The resulting electrospun polyethylene oxide fibers comprised 25 wt % sildenafil citrate (relative to the polyethylene oxide mass) and 50 wt % confectionary sugar (i.e., for every 10 mg of polyethylene oxide, 2.5 mg of sildenafil citrate and 5 mg of confectionary sugar were added).
# as §1
# Each blood sample was analyzed using HPLC to determine the plasma concentration of sildenafil citrate in ng/mL. […]
SMILES,"plasma concentration of cannabidiol, sublingual compared to oral administration [1]","duration of the higher plasma concentration of sildenafil citrate, sublingual compared to oral administration [2]","plasma concentration of sildenafil citrate, sublingual compared to oral administration ([2]; blood 3-120 min)"
C=C(C)[C@@H]1CCC(C)=C[C@H]1c1c(O)cc(CCCCC)cc1O [cannabidiol],higher plasma concentration in a shorter period of time,–,–
CCCc1nn(C)c2c(=O)[nH]c(-c3cc(S(=O)(=O)N4CCN(C)CC4)ccc3OCC)nc12 [sildenafil citrate],–,maintained the higher plasma concentration over a longer period of time,higher plasma concentration in a shorter period of time
